Experimental findings from US10000791B2, “Measurement method for human pancreatic lipase activity” (ASAHI KASEI PHARMA CORPORATION, priority 2013, dated 2018) are described below.

The test system of assay [1] is human pancreatic lipase. As to the kind of experiment: pH dependence of human pancreatic lipase activity in the presence of bile acids (diglyceride substrate, UV method). Format: biochemical. The procedure:
After weighing 1,2-dioleoyl glycerol (DODG) (manufactured by Nippon Fine Chemical Co., Ltd.) to attain a concentration of 9.32 mmol/L when dissolved, 1% polyoxyethylene (10) nonyl phenyl ether (NPE) (manufactured by Wako Pure Chemical Industries Ltd.) containing 1.66 mmol/L of MES (manufactured by Dojindo Laboratories) was added thereto to be dissolved therein by stirring at 37° C. for 2 hours, and the resultant was allowed to stand still in ice for 2 hours or more. The thus obtained solution was used as a substrate original liquid.
The above-described diglyceride original liquid was used for preparing a “substrate stock solution” having the following composition:
A “first reaction solution (R-1)” having the following composition was prepared:
A “second reaction solution (R-2)” having the following composition was prepared:
A “second reaction solution (R-2) for sample blank” having the following composition was prepared:
A mixture of the substrate stock solution and the R-1 in a proportion of 1:2 was used as a first reagent. The R-2 was directly used as a second reagent. As a sample, pooled serum or a control sample (a control containing a pancreatic lipase) was used. A proportion in amount among the sample, the first reagent and the second reagent was set as sample:first reagent:second reagent of 0.01 ml:0.18 ml:0.06 ml. The sample was added to the first reagent, the resultant mixture was heated at 37° C. for 5 minutes, the second reagent was added thereto, and a change rate of an absorbance at 340 nm based on reduced NADP was obtained at 37° C. from 3 minutes after the addition of the second reagent to 4 minutes after the addition, and then, the lipase activity was calculated by using a molecular extinction coefficient of 6300 L/mol·cm of the reduced NADP. Besides, as a sample blank, saline was used instead of a sample, an absorbance was measured by using the reagent for sample blank obtained by removing MGLPII from the second reagent, and a difference between the thus measured two values was defined as an enzyme activity value. For the measurement, Hitachi automatic analyzer Model H7170 or H7080 was used.
As a conjugated bile acid to be added to the R-1, sodium taurodeoxycholate (NaTDCA), sodium glycodeoxycholate (NaGDCA), sodium glycochenodeoxycholate (NaGCDCA), sodium taurochenodeoxycholate (NaTCDCA), sodium glycocholate (NaGCA), sodium taurocholate (NaTCA) and sodium tauroursodeoxycholate (NaTUDCA) all in a concentration of 40 mmol/L were selected, the R-1 was adjusted, by using BES (manufactured by Dojindo Laboratories) respectively to pH 6.8, 7.0, 7.2, 7.4, 7.8, and 8.0, and the human pancreatic lipase activity was measured by using these. The pH of the R-2 was adjusted to be equal to that of the R-1.
It is noted that the concentration of each non-conjugated bile acid was set to be 24 mmol/L in the R-1. Besides, BES was used for adjusting pH to 7.2, 7.6, 7.8 and 8.0, and Bicine was used for adjusting pH to 8.2 and 8.5.
Similarly to Example 1, a mixture of the substrate stock solution and the R-1 in a proportion of 1:2 was used as a first reagent. Except for this, the measurement was performed in the same manner as in Example 1.
Besides, NaTCA was also combined with a conjugated bile acid, NaTDCA, to examine the pH for giving a maximum value of the human pancreatic lipase activity (the apparent optimum pH). It is noted that a BES buffer was used for adjusting pH to 6.9, 7.2 and 7.7, and a Bicine buffer was used for adjusting pH to 7.95 and 8.2. In each of the combinations of NaGCA/NaDCA, NaTCA/NaDCA, NaTUDCA/NaDCA and NaTCA/NaTDCA, the concentration of each bile acid was set to 20 mmol/L in the R-1. With respect to the combination of NaTCA and NaTDCA, a concentration of 40 mmol/L of NaTDCA was used as a control.
The compositions of the reagents and the measurement operation were the same as those of Example 2.

The subject of assay [2] is human pancreatic lipase. The description is as above. The note with it: pH 7.2. It is filed as biochemical.

SMILES strings stand for the structures.

`C[C@H](CCC(=O)NCCS(=O)(=O)[O-])[C@H]1CC[C@H]2[C@@H]3CC[C@@H]4C[C@H](O)CC[C@]4(C)[C@H]3C[C@H](O)[C@]12C.[Na+]` [NaTDCA, sodium taurodeoxycholate]: the “optimum pH” value with human pancreatic lipase [1] (NaTDCA 40 mmol/L control of Example 2) is on record as “about 7.1”. For the same compound, the “pH for giving a maximum value of the human pancreatic lipase activity (apparent optimum pH)” value in the assay with human pancreatic lipase [1] (pooled serum, conjugated bile acid singly, 40 mmol/L in R-1, BES pH 6.8-8.0) is “about 7”. Besides, the “proportion of the bile acid to the substrate for attaining the maximum lipase activity” value in the assay with human pancreatic lipase [2] (substrate concentration 1.40 mmol/L) is “about 17”; in the assay with human pancreatic lipase [2] (substrate concentration 1.63 mmol/L), “about 15”.
